Columns and labels:
Type in all cases: in vivo
[1] = tested on: barnyard grass (Eo); experiment: Test Example 1: herbicidal effects by flooded paddy field treatment; design: herbicidal effects, Eo (barnyard grass):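 0-5 growth inhibition grade; 5 = over 90%; 4 = 70-90%; 3 = 50-70%; 2 = 30-50%; 1 = 10-30%; 0 = under 10%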; settings: for Herbicidal effect index, Eo: dose 100 gai/10a, examined on 21st day after treatment, index 0-5 per Table 44; for herbicidal effects, Eo (barnyard grass): dose 100 g active ingredient per 10 ares, examined on the 21st day after treatment, standards of Table 44;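 for Herbicidal effect index, Eo: 0-5 growth inhibition grade; 5 = over 90%; 4 = 70-90%; 3 = 50-70%; 2 = 30-50%; 1 = 10-30%; 0 = under 10%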
In short: (§1)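 Puddled paddy soil in pots, seeds sown, 3 cm flood. Day after sowing: wettable powder diluted in water, applied dropwise to water surface, 100 g a.i./10 ares. Greenhouse; visual herbicidal rating at day 21 post-treatment.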

[2] = tested on: monochoria (Mo); experiment: as above; design: herbicidal effects, Mo (monochoria):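 0-5 growth inhibition grade; 5 = over 90%; 4 = 70-90%; 3 = 50-70%; 2 = 30-50%; 1 = 10-30%; 0 = under 10%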; settings: for Herbicidal effect index, Mo: dose 100 gai/10a, examined on 21st day after treatment, index 0-5 per Table 44; for herbicidal effects, Mo (monochoria): dose 100 g active ingredient per 10 ares, examined on the 21st day after treatment, standards of Table 44
In short: as §1

[3] = tested on: barnyard grass (Ec); experiment: Test Example 2: herbicidal effects by upland soil treatment; design: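 0-5 growth inhibition grade; 5 = over 90%; 4 = 70-90%; 3 = 50-70%; 2 = 30-50%; 1 = 10-30%; 0 = under 10%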; settings: dose 100 g active ingredient per 10 ares, examined on the 21st day after treatment, standards of Table 44
In short: (§2)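 Pre-emergence test: barnyard grass and green foxtail sown in upland soil, then soil surface sprayed with wettable-powder formulation at 100 g active ingredient per 10 ares (100 l per 10 ares). Grown in greenhouse; herbicidal effect scored on a rating scale 21 days after treatment.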

[4] = tested on: green foxtail (Se); experiment: as above; settings: dose 100 g active ingredient per 10 ares, examined on the 21st day after treatment, standards of Table 44;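 note: 0-5 growth inhibition grade; 5 = over 90%; 4 = 70-90%; 3 = 50-70%; 2 = 30-50%; 1 = 10-30%; 0 = under 10%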
In short: as §2

[5] = tested on: barnyard grass (Ec); experiment: Test Example 3: herbicidal effects by foliage treatment in upland field; design: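 0-5 growth inhibition grade; 5 = over 90%; 4 = 70-90%; 3 = 50-70%; 2 = 30-50%; 1 = 10-30%; 0 = under 10%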; settings: dose 100 g active ingredient per 10 ares, examined on the 14th day after treatment
In short: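 Barnyard grass and green foxtail were grown in upland soil for 2 weeks in a greenhouse. A water-diluted wettable powder was sprayed over the foliage at 100 l per 10 ares, giving 100 g active ingredient per 10 ares. Herbicidal effect was scored on day 14 after treatment.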

[6] = tested on: barnyard grass (Eo); experiment: Test Example 4: selectivity for a crop plant by flooded paddy field treatment; design: scale not given here; settings: for Eo (herbicidal effects, index): dose 25 g active ingredient per 10 ares, examined on the 21st day after treatment
In short: (§3)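 Flooded paddy pots, 3 cm water; weeds sown from seed, rice transplanted at 2nd-leaf stage. Day after: wettable powder diluted in water, applied dropwise to water surface, 25 g a.i./10 a. Greenhouse; herbicidal effect rated at day 21.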

[7] = tested on: monochoria (Mo); experiment: as above; design: scale not given here; settings: for Mo (herbicidal effects, index): dose 25 g active ingredient per 10 ares, examined on the 21st day after treatment
In short: as §3

[8] = tested on: rice (Or); experiment: as above; design: scale not given here; settings: rice transplanted at second leaf stage; for Or (effect on crop plant rice, index): dose 25 g active ingredient per 10 ares, examined on the 21st day after treatment
In short: as §3
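Throughout, for Herbicidal effect index, Mo: 0-5 growth inhibition grade; 5 = over 90%; 4 = 70-90%; 3 = 50-70%; 2 = 30-50%; 1 = 10-30%; 0 = under 10%.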

Cc1ncncc1C(C(C)C)N(C)C(=O)Cc1ccccc1 (racemic) [Compound 1-87]
1: Or (effect on crop plant rice, index) [8]
5: Herbicidal effect index, Eo [1] | Herbicidal effect index, Mo [2] | herbicidal effects, Ec (barnyard grass) [3] | herbicidal effects, Se (green foxtail) [4] | Eo (herbicidal effects, index) [6] | Mo (herbicidal effects, index) [7]
4: Ec (herbicidal effects, index) [5]

CCOc1ccc(CC(=O)N(C)C(c2cncnc2C(F)(F)F)C(C)C)cc1 (racemic) [Compound 1-13]
1: Or (effect on crop plant rice, index) [8]
5: Herbicidal effect index, Eo [1] | Herbicidal effect index, Mo [2] | herbicidal effects, Ec (barnyard grass) [3] | herbicidal effects, Se (green foxtail) [4] | Ec (herbicidal effects, index) [5] | Eo (herbicidal effects, index) [6] | Mo (herbicidal effects, index) [7]

CC(C)C(c1cncnc1C(F)(F)F)N(C)C(=O)COc1cccc(Cl)c1 (racemic) [Compound 1-133]
1: Or (herbicidal effect index on crop) ([8]; dose 25 gai/10a, 21st day after treatment, index per Table 44)
5: herbicidal effects, Eo (barnyard grass) [1] | herbicidal effects, Mo (monochoria) [2] | herbicidal effects, Ec (barnyard grass) [3] | herbicidal effects, Se (green foxtail) [4] | Ec (herbicidal effects, index) [5] | Eo (herbicidal effect index) ([6]; barnyard grass, dose 25 gai/10a, 21st day after treatment, index per Table 44) | Mo (herbicidal effect index) ([7]; monochoria, dose 25 gai/10a, 21st day after treatment, index per Table 44)

COc1cc(CC(=O)N(C)C(c2cncnc2C(F)(F)F)C(C)C)ccc1Cl (racemic) [Compound 1-47]
4: Ec (herbicidal effects, index) [5]
5: Herbicidal effect index, Eo [1] | Herbicidal effect index, Mo [2] | herbicidal effects, Ec (barnyard grass) [3] | herbicidal effects, Se (green foxtail) [4] | Eo (herbicidal effects, index) [6] | Mo (herbicidal effects, index) [7]
0: Or (effect on crop plant rice, index) [8]

CC(C)C(c1cncnc1C(F)(F)F)N(C)C(=O)Cc1cccc(Cl)c1 (racemic) [Compound 1-21]
5: Herbicidal effect index, Eo [1] | Herbicidal effect index, Mo [2] | herbicidal effects, Ec (barnyard grass) [3] | herbicidal effects, Se (green foxtail) [4] | Eo (herbicidal effects, index) [6] | Mo (herbicidal effects, index) [7]
1: Or (effect on crop plant rice, index) [8]
4: Ec (herbicidal effects, index) [5]

C#CCN(C(=O)Cc1ccc(Cl)cc1)C(c1cncnc1C(F)(F)F)C(C)C (racemic) [1-194]
5: herbicidal effects, Eo (barnyard grass) [1] | herbicidal effects, Mo (monochoria) [2] | herbicidal effects, Ec (barnyard grass) [3] | herbicidal effects, Se (green foxtail) [4] | Ec (herbicidal effects, index) [5]

COc1ccc(CC(=O)N(C)C(c2cncnc2C(F)(F)F)C(C)C)cc1 (racemic) [Compound 1-9]
5: Herbicidal effect index, Eo [1] | Herbicidal effect index, Mo [2] | herbicidal effects, Ec (barnyard grass) [3] | herbicidal effects, Se (green foxtail) [4] | Ec (herbicidal effects, index) [5]

CN(C(=O)Cc1ccccc1)C(c1ccccc1)c1cncnc1C(F)(F)F (racemic) [1-186]
5: herbicidal effects, Eo (barnyard grass) [1] | herbicidal effects, Mo (monochoria) [2] | herbicidal effects, Ec (barnyard grass) [3] | herbicidal effects, Se (green foxtail) [4] | Ec (herbicidal effects, index) [5]
